These results are taken from ChEMBL document CHEMBL1128211, “3D-quantitative structure-activity relationships of human immunodeficiency virus type-1 proteinase inhibitors: comparative molecular field analysis of 2-heterosubstituted statine derivatives-implications for the design of novel inhibitors” (J Med Chem, 1995).

Molecules are shown by their SMILES.

This assay concerns the target Human immunodeficiency virus type 1 protease (Human immunodeficiency virus 1, UniProt Q72874). The assay can be described thus: Inhibitory activity was determined against HIV type 1 protease.
As usually defined, the Ki is the dissociation constant of the complex between target and ligand, obtained from inhibition or displacement. Read a high Ki as lower affinity. Turning to `CC(C)C[C@H](NC(=O)[C@H](NCc1ccccc1)[C@H](O)[C@H](Cc1ccccc1)NC(=O)[C@@H](NC(=O)OCc1ccccc1)C(C)C)C(=O)NCc1ccccc1`, affinity was put at a Ki of 11 nM.

In turn, `CC(C)(C)[C@H](NC(=O)OCc1ccccc1)C(=O)N[C@@H](Cc1ccccc1)[C@@H](O)[C@@H](NCc1ccccc1)C(=O)NC(CO)c1ccccc1` (stereo not given in full) had a Ki of 107 nM.

Compound `COc1ccc(CN[C@@H](C(=O)N[C@H](C(=O)NCCn2ccnc2)C(C)C)[C@H](O)[C@H](Cc2ccccc2)NC(=O)[C@@H](NC(=O)OCc2ccccc2)C(C)C)cc1` showed a Ki of 28.8 nM.

Regarding `CC(C)[C@H](NC(=O)OCc1ccccn1)C(=O)N[C@@H](Cc1ccccc1)[C@@H](O)[C@@H](NCc1ccccc1)C(=O)N[C@H](C(=O)NCc1ccccn1)C(C)C`, the Ki was 26.9 nM.

For the compound `COc1ccc(CN[C@@H](C(=O)N[C@H](C(=O)NCc2ccccc2)C(C)C)[C@H](O)[C@H](Cc2ccccc2)NC(=O)[C@@H](NC(=O)N(C)Cc2nc3ccccc3[nH]2)C(C)C)cc1`, affinity was put at a Ki of 10.2 nM.

For `CC(C)[C@H](NC(=O)OCc1ccccc1)C(=O)N[C@@H](Cc1ccccc1)[C@@H](O)[C@@H](NCCc1cc2ccccc2[nH]1)C(=O)N[C@H](C(=O)NCc1ccccc1)C(C)C`, the affinity corresponds to a Ki of 61.7 nM.

Compound `COC(=O)[C@@H](NC(=O)[C@H](NCc1ccccc1)[C@H](O)[C@H](Cc1ccccc1)NC(=O)[C@@H](NC(=O)OCc1ccccc1)C(C)C)C(C)C` showed a Ki of 1100 nM.

`COc1ccc(CN[C@@H](C(=O)NCc2ccc(OC)cc2O)[C@H](O)[C@H](Cc2ccccc2)NC(=O)[C@@H](NC(=O)OCc2ccccc2)C(C)C)cc1`: the Ki is 3020 nM.

On to `CC(C)(C)[C@H](NC(=O)OCc1ccccc1)C(=O)N[C@@H](Cc1ccccc1)[C@@H](O)[C@@H](NCc1ccc(OCCO)cc1)C(=O)N[C@H]1c2ccccc2CC1O` (stereo not given in full), for which the Ki was 15.8 nM.

In turn, `COc1ccc(C[C@H](NC(=O)OC(C)(C)C)[C@@H](O)[C@@H](NCc2ccc(Cl)cc2)C(=O)N[C@H](C(=O)NCc2nc3ccccc3[nH]2)C(C)C)cc1` gave a Ki of 8.91 nM.

In turn, `CC(C)[C@H](NC(=O)[C@H](NCc1ccccc1)[C@H](O)[C@H](Cc1ccccc1)NC(=O)[C@@H](NC(=O)CC1NC(=O)NC1=O)C(C)(C)C)C(=O)NCc1ccccc1` (stereo not given in full) gave a Ki of 11 nM.

`CC(C)(C)OC(=O)N[C@@H](Cc1ccccc1)[C@@H](O)[C@@H](NCc1ccc(CNC(=O)CCc2nc3ccccc3[nH]2)cc1)C(=O)N[C@H]1c2ccccc2CC1O` (stereo not given in full) had a Ki of 40.7 nM.

Turning to `COc1ccc(CN[C@@H](C(=O)N[C@H](C(=O)NCC2CCCCC2O)C(C)C)[C@H](O)[C@H](Cc2ccccc2)NC(=O)[C@@H](NC(=O)OCc2ccccc2)C(C)C)cc1` (stereo not given in full), affinity was put at a Ki of 15.8 nM.

Compound `CCOc1ccc(CN[C@@H](C(=O)NCc2ccccc2)[C@H](O)[C@H](Cc2ccccc2)NC(=O)[C@@H](NC(=O)OCc2ccccc2)C(C)(C)C)cc1` had an inhibition constant Ki of 37.2 nM.

The compound `CC(C)(C)[C@H](NC(=O)OCc1ccccc1)C(=O)N[C@@H](Cc1ccccc1)[C@@H](O)[C@@H](NCc1ccc(OCCO)cc1)C(=O)NCc1ccccc1` gave a Ki of 33.9 nM.

With `COc1cccc(CN[C@@H](C(=O)N[C@H](C(=O)NCc2nc3ccccc3[nH]2)C(C)C)[C@H](O)[C@H](Cc2ccccc2)NC(=O)[C@@H](NC(=O)OCc2ccccc2)C(C)C)c1`, the Ki was 9.77 nM.

Regarding `COc1ccc(CN[C@@H](C(=O)N[C@H](C(=O)NCc2nc3ccccc3[nH]2)C(C)C)[C@H](O)[C@H](Cc2ccccc2)NC(=O)[C@@H](NC(=O)OC(C)(C)C)C(C)C)cc1`, the Ki was 20.9 nM.

For the compound `COc1ccc(CN[C@@H](C(=O)N[C@H](C(=O)NCc2ccc(OC)cc2O)C(C)C)[C@H](O)[C@H](Cc2ccccc2)NC(=O)[C@@H](NC(=O)OCc2ccccc2)C(C)C)cc1`, the affinity, expressed as Ki, was 14.1 nM.

`COc1ccc(CN[C@@H](C(=O)N[C@H](C(=O)NCc2nc3ccccc3[nH]2)C(C)C)[C@H](O)[C@H](Cc2ccccc2)NC(=O)[C@@H](NC(=O)OCc2nc3cc[nH]cc-3n2)C(C)(C)C)cc1` showed a Ki of 19.1 nM.

`CC(C)[C@H](NC(=O)c1ccc2ccccc2n1)C(=O)N[C@@H](Cc1ccccc1)[C@@H](O)[C@@H](NCc1ccccc1)C(=O)N[C@H](C(=O)NCc1ccccn1)C(C)C` gave a Ki of 42.7 nM.

Regarding `CC(C)[C@H](NC(=O)OCc1ccccc1)C(=O)N[C@@H](Cc1ccccc1)[C@@H](O)[C@@H](NCc1ccc(Cl)cc1)C(=O)N[C@H](C(=O)NCc1ccccn1)C(C)C`, the affinity corresponds to a Ki of 6.46 nM.

On to `CC(C)[C@H](NC(=O)[C@H](NCc1ccccc1)[C@H](O)[C@H](Cc1ccccc1)NC(=O)[C@@H](NC(=O)OCc1ccccn1)C(C)(C)C)C(=O)NCc1ccccc1`, for which the Ki is 1.24 nM.

`CC(C)[C@H](NC(=O)[C@H](SCc1ccccc1)[C@H](O)[C@H](Cc1ccccc1)NC(=O)OC(C)(C)C)C(=O)NCc1ccccc1` gave a Ki of 26.9 nM.

The compound `COc1ccc(CN[C@@H](C(=O)NC2c3ccccc3C[C@H]2O)[C@H](O)[C@H](Cc2ccccc2)NC(=O)[C@@H](NC(=O)C(O)Cc2ccccc2)C(C)(C)C)cc1` (stereo not given in full) had a Ki of 14.1 nM.

The compound `COc1ccc(CN[C@@H](C(=O)NCCNCc2nc3ccccc3[nH]2)[C@H](O)[C@H](Cc2ccccc2)NC(=O)[C@@H](NC(=O)OCc2ccccc2)C(C)C)cc1` gave a Ki of 1290 nM.

Compound `CC(C)[C@H](NC(=O)OCc1ccccc1)C(=O)N[C@@H](Cc1ccccc1)[C@@H](O)[C@@H](NCc1ccc(Br)cc1)C(=O)N[C@H](C(=O)NCc1nc2ccccc2[nH]1)C(C)C` had a Ki of 15.1 nM.

As to `CC(C)[C@H](NC(=O)[C@H](NCc1ccccc1)[C@H](O)[C@H](Cc1ccccc1)NC(=O)[C@@H](NC(=O)N(C)c1ccccc1)C(C)(C)C)C(=O)NCc1ccccc1`, the Ki is 646 nM.

Regarding `COc1ccc(CN[C@@H](C(=O)N[C@H](C(=O)NCCn2cnc3ccccc32)C(C)C)[C@H](O)[C@H](Cc2ccccc2)NC(=O)[C@@H](NC(=O)OCc2ccccc2)C(C)C)cc1`, the Ki was 19.1 nM.

For the compound `CCOc1ccc(CN[C@@H](C(=O)N[C@H]2c3ccccc3CC2O)[C@H](O)[C@H](Cc2ccccc2)NC(=O)[C@@H](NC(=O)OCc2ccccc2)C(C)(C)C)cc1` (stereo not given in full), affinity was put at a Ki of 10 nM.

Regarding `CCOC(=O)[C@H](NCc1ccc(Cl)cc1)[C@H](O)[C@H](Cc1ccc(OC)cc1)NC(=O)OC(C)(C)C`, the affinity corresponds to a Ki of 3720 nM.

In the case of `COc1ccc(CN[C@@H](C(=O)N[C@H](C(=O)NCc2nc3ccccc3[nH]2)C(C)C)[C@H](O)[C@H](Cc2ccccc2)NC(=O)[C@@H](NC(=O)OCc2ccccc2)C(C)C)cc1OC`, the affinity, expressed as Ki, was 12.6 nM.

For `COc1ccc(CN[C@@H](C(=O)N[C@H](C(=O)NCc2nc3ccccc3[nH]2)C(C)C)[C@H](O)[C@H](Cc2ccccc2)NC(=O)[C@@H](NC(=O)[C@@H](O)Cc2ccccc2)C(C)(C)C)cc1`, the Ki is 6.03 nM.

As for `COc1ccc(CN[C@@H](C(=O)NCC(O)c2ccccc2)[C@H](O)[C@H](Cc2ccccc2)NC(=O)[C@@H](NC(=O)OCc2ccccc2)C(C)C)cc1` (stereo not given in full), the Ki was 2510 nM.

In turn, `CC(C)(C)[C@H](NC(=O)OCc1ccccc1)C(=O)N[C@@H](Cc1ccccc1)[C@@H](O)[C@@H](NCc1ccccc1)C(=O)N[C@@H](CO)c1ccccc1` gave a Ki of 36.3 nM.

For `COc1ccc(CN[C@@H](C(=O)N[C@H](C(=O)N(C)Cc2nc3ccccc3[nH]2)C(C)C)[C@H](O)[C@H](Cc2ccccc2)NC(=O)OC(C)(C)C)cc1`, the Ki was 12 nM.

As to `COc1ccc(CN[C@@H](C(=O)N[C@H](C(=O)NCc2nc3ccccc3[nH]2)C(C)C)[C@H](O)[C@H](Cc2ccccc2)NC(=O)[C@@H](N)C(C)(C)C)cc1`, the affinity, expressed as Ki, was 7.76 nM.

`CC(C)(C)[C@H](NC(=O)OCc1ccccc1)C(=O)N[C@@H](Cc1ccccc1)[C@@H](O)[C@@H](NCc1ccc(OCCN2CCOCC2)cc1)C(=O)N[C@H]1c2ccccc2CC1O` (stereo not given in full) had a Ki of 9.55 nM.

`CC(C)[C@H](NC(=O)[C@H](NCc1ccc(Br)cc1)[C@H](O)[C@H](Cc1ccccc1)NC(=O)[C@@H](NC(=O)c1ccc2ccccc2n1)C(C)(C)C)C(=O)NCc1nc2ccccc2[nH]1`: the Ki was 5.62 nM.

`CC(C)[C@H](NC(=O)[C@H](NCc1ccccc1)[C@H](O)[C@H](Cc1ccccc1)NC(=O)[C@@H](NC(=O)OC(C)(C)C)C(C)(C)C)C(=O)NCc1ccccc1` gave a Ki of 417 nM.

`COc1ccc(CN[C@@H](C(=O)N[C@H](C(=O)NCCN2CCOCC2)C(C)C)[C@H](O)[C@H](Cc2ccccc2)NC(=O)[C@@H](NC(=O)OCc2ccccc2)C(C)C)cc1` gave a Ki of 24 nM.

`CC(C)(C)[C@H](NC(=O)OCc1ccccc1)C(=O)N[C@@H](Cc1ccccc1)[C@@H](O)[C@@H](NCc1ccc(OCCN2CCOCC2)cc1)C(=O)NCc1ccccc1` gave a Ki of 69.2 nM.

On to `CC(C)(C)OC(=O)N[C@@H](Cc1ccccc1)[C@@H](O)[C@@H](NCc1ccc(OCCN2CCOCC2)cc1)C(=O)N[C@H]1c2ccccc2CC1O` (stereo not given in full), for which the affinity corresponds to a Ki of 162 nM.

Consider `COc1ccc(CN[C@@H](C(=O)N[C@H](C(=O)NCc2nc3ccccc3[nH]2)C(C)C)[C@H](O)[C@H](Cc2ccccc2)NC(=O)[C@H](NC(=O)OCc2nc3cc[nH]cc-3n2)C(C)(C)C)cc1`, for which the inhibition constant (Ki) is 447 nM.

`CC(C)(C)[C@H](NC(=O)OCc1ccccc1)C(=O)N[C@@H](Cc1ccccc1)[C@@H](O)[C@@H](NCc1ccc(CNC(=O)OCc2ccccc2)cc1)C(=O)N[C@H]1c2ccccc2CC1O` (stereo not given in full) had an inhibition constant Ki of 10 nM.

`CC(C)(C)[C@H](NC(=O)OCc1ccccc1)C(=O)N[C@@H](Cc1ccccc1)[C@@H](O)[C@@H](NCc1ccc(CNC(=O)CCc2nc3ccccc3[nH]2)cc1)C(=O)N[C@H]1c2ccccc2CC1O` (stereo not given in full) had a Ki of 4.07 nM.

For `COc1ccc(CN[C@@H](C(=O)N[C@H](C(=O)Nc2ccc3c(c2)OCCO3)C(C)C)[C@H](O)[C@H](Cc2ccccc2)NC(=O)[C@@H](NC(=O)OCc2ccccc2)C(C)C)cc1`, the Ki was 15.1 nM.

As for `CC(C)(C)OC(=O)N[C@@H](Cc1ccccc1)[C@@H](O)[C@@H](NCc1ccc(CNC(=O)OCc2ccccc2)cc1)C(=O)N[C@H]1c2ccccc2CC1O` (stereo not given in full), the Ki was 19.1 nM.

`CC(C)[C@H](NC(=O)[C@H](NCc1ccccc1)[C@H](O)[C@H](Cc1ccccc1)NC(=O)[C@H](O)C(C)C)C(=O)NCc1ccccc1` had a Ki of 794 nM.

For `CC(C)(C)OC(=O)N[C@@H](Cc1ccccc1)[C@@H](O)[C@@H](NCc1ccc(OCCO)cc1)C(=O)NCc1ccccc1`, the affinity corresponds to a Ki of 1200 nM.

Regarding `CC(C)(C)OC(=O)N[C@@H](Cc1ccccc1)[C@@H](O)[C@@H](NCc1ccccc1)C(=O)NCc1ccccc1`, the Ki was 2510 nM.
